Reference: ChEMBL document CHEMBL4049391, “Vicinal diaryl azole-based urea derivatives as potential cholesterol lowering agents acting through inhibition of SOAT enzymes” (Eur J Med Chem, 2017)
Calls of active or inactive are those of the source. The rule behind the calls is not given here.

Key:
Rattus norvegicus [1] = species: Rattus norvegicus; assay: Inhibition of rat microsomal SOAT assessed as reduction in cholesteryl oleate formation from oleoyl co-enzyme A at 10 uM pretreated for 15 mins followed by oleoyl co-enzyme A addition measured after 10 mins by HPTLC method relative to control
[2] = Inhibition of rat microsomal SOAT assessed as reduction in cholesteryl oleate formation from oleoyl co-enzyme A pretreated for 15 mins followed by oleoyl co-enzyme A addition after 10 mins by HPTLC method
Rattus norvegicus [3] = assay: Anti-hypercholesterolemic activity in poloxamer-407-induced Wistar rat lipoprotein lipase inhibition model assessed as fold change in triglyceride level at 20 mg/kg administered as single dose via oral gavage pretreated for 4 hrs followed by poloxamer-407 induction measured over 24 hrs (reference value: 80); assay type: functional
Rattus norvegicus [4] = assay: Anti-atherosclerosis activity in high cholesterol diet-induced Wistar rat atherogenesis model assessed as effect on serum total cholesterol level at 30 mg/kg, po administered once daily measured after 4 weeks; assay type: functional
Rattus norvegicus [5] = assay: Anti-atherosclerosis activity in po dosed high cholesterol diet-induced Wistar rat atherogenesis model assessed as increase in HDL-cholesterol level administered once daily measured after 4 weeks; assay type: functional, organism-based
Rattus norvegicus [6] = assay: Anti-atherosclerosis activity in high cholesterol diet-induced Wistar rat atherogenesis model assessed as reduction in LDL-cholesterol level at 10 mg/kg, po administered once daily measured after 4 weeks; assay type: functional, organism-based
Rattus norvegicus [7] = assay: Anti-atherosclerosis activity in high cholesterol diet-induced Wistar rat atherogenesis model assessed as reduction in VLDL-cholesterol level at 10 to 30 mg/kg, po administered once daily measured after 4 weeks; assay type: functional, organism-based
Rattus norvegicus [8] = assay: Anti-atherosclerosis activity in high cholesterol diet-induced Wistar rat atherogenesis model assessed as atherogenic index at 10 mg/kg, po administered once daily measured after 4 weeks (reference value: 19.59 +/- 5.8); assay type: functional
Rattus norvegicus [9] = assay: Anti-atherosclerosis activity in high cholesterol diet-induced Wistar rat atherogenesis model assessed as atherogenic index at 30 mg/kg, po administered once daily measured after 4 weeks (reference value: 19.59 +/- 5.8); assay type: functional
Rattus norvegicus [10] = assay: Toxicity in Wistar rat assessed as effect on body weight at 30 mg/kg, po administered once daily measured after 4 weeks (reference value: 290.3 +/- 8.1 g); assay type: organism-based; conditions: in vivo, 672 h
Rattus norvegicus [11] = assay: (§1) Anti-atherosclerosis activity in high cholesterol diet-induced Wistar rat atherogenesis model assessed as lipid accumulation lesion area in thoracic aorta at 30 mg/kg, po administered once daily measured after 4 weeks by Sudan red 4 staining based photographic method relative to control; assay type: functional
Rattus norvegicus [12] = assay: as §1, with “10” for “30”, “(reference value: 22.35 +/- 7.9%)” for “relative to control”; assay type: functional
Rattus norvegicus [13] = assay: Anti-atherosclerosis activity in high cholesterol diet-induced Wistar rat atherogenesis model assessed as reduction in fatty streak formation in thoracic aorta at 10 mg/kg, po administered once daily measured after 4 weeks by Sudan red 4 staining based photographic method; assay type: functional, organism-based
Rattus norvegicus [14] = assay: Anti-atherosclerosis activity in high cholesterol diet-induced Wistar rat atherogenesis model assessed as reduction in fatty streak formation in thoracic aorta at 30 mg/kg, po administered once daily measured after 4 weeks by Sudan red 4 staining based photographic method; assay type: functional, organism-based
Rattus norvegicus [15] = assay: Anti-atherosclerosis activity in high cholesterol diet-induced Wistar rat atherogenesis model assessed as reduction in lumenal lipid plaque formation in aortic roots at 10 to 30 mg/kg, po administered once daily measured after 4 weeks by Sudan red 4 staining based photographic method; assay type: functional, organism-based
Rattus norvegicus [16] = assay: Toxicity in Wistar rat assessed as cutaneous toxicity at 10 to 30 mg/kg, po administered once daily measured after 4 weeks; assay type: organism-based; conditions: in vivo, 672 h
Rattus norvegicus [17] = assay: Toxicity in Wistar rat assessed as adrenal toxicity at 10 to 30 mg/kg, po administered once daily measured after 4 weeks; assay type: organism-based; conditions: in vivo, 672 h
Rattus norvegicus [18] = assay: Acute toxicity in Wistar rat assessed as change in grooming behavior at 2000 mg/kg, po administered as single dose measured at 6 hrs post dose; assay type: organism-based; conditions: in vivo
Rattus norvegicus [19] = assay: Acute toxicity in Wistar rat assessed as effect on water intake at 2000 mg/kg, po administered as single dose measured at 6 hrs post dose; assay type: organism-based; conditions: in vivo
Rattus norvegicus [20] = assay: Acute toxicity in Wistar rat assessed as effect on skin color at 2000 mg/kg, po administered as single dose measured up to 14 days; assay type: organism-based; conditions: in vivo, 336 h
Rattus norvegicus [21] = assay: Acute toxicity in Wistar rat assessed as effect on fur color at 2000 mg/kg, po administered as single dose measured up to 14 days; assay type: organism-based; conditions: in vivo, 336 h
Rattus norvegicus [22] = assay: Acute toxicity in Wistar rat assessed as effect on locomotion at 2000 mg/kg, po administered as single dose measured up to 14 days; assay type: organism-based; conditions: in vivo, 336 h
Rattus norvegicus [23] = assay: Acute toxicity in Wistar rat assessed as changes in eyes at 2000 mg/kg, po administered as single dose measured up to 14 days; assay type: organism-based; conditions: in vivo, 336 h
[24] = Acute toxicity in Wistar rat assessed as mortality administered orally as single dose measured up to 14 days; conditions: in vivo, po, read-out: CD50
Rattus norvegicus [25] = assay: Acute toxicity in Wistar rat assessed as effect on viscera at 2000 mg/kg, po administered as single dose measured up to 14 days; assay type: organism-based; conditions: in vivo, 336 h
Rattus norvegicus [26] = assay: Acute toxicity in Wistar rat assessed as macroscopic lesions in heart at 2000 mg/kg, po administered as single dose measured up to 14 days; assay type: organism-based; conditions: in vivo, 336 h
Rattus norvegicus [27] = assay: Acute toxicity in Wistar rat assessed as macroscopic lesions in liver at 2000 mg/kg, po administered as single dose measured up to 14 days; assay type: organism-based; conditions: in vivo, 336 h
Rattus norvegicus [28] = assay: Acute toxicity in Wistar rat assessed as macroscopic lesions in adrenal gland at 2000 mg/kg, po administered as single dose measured up to 14 days; assay type: organism-based; conditions: in vivo, 336 h
Rattus norvegicus [29] = assay: Acute toxicity in Wistar rat assessed as effect on mucus of lungs at 2000 mg/kg, po administered as single dose measured up to 14 days; assay type: organism-based; conditions: in vivo, 336 h
Rattus norvegicus [30] = assay: Acute toxicity in Wistar rat assessed as macroscopic lesions in kidney at 2000 mg/kg, po administered as single dose measured up to 14 days; assay type: organism-based; conditions: in vivo, 336 h
Rattus norvegicus [31] = assay: Acute toxicity in Wistar rat assessed as macroscopic lesions in spleen at 2000 mg/kg, po administered as single dose measured up to 14 days; assay type: organism-based; conditions: in vivo, 336 h
Rattus norvegicus [32] = assay: Acute toxicity in Wistar rat assessed as effect on gastrointestinal tract at 2000 mg/kg, po administered as single dose measured up to 14 days; assay type: organism-based; conditions: in vivo, 336 h
Rattus norvegicus [33] = assay: Acute toxicity in Wistar rat assessed as changes in adrenal gland shape at 2000 mg/kg, po administered as single dose measured up to 14 days; assay type: organism-based; conditions: in vivo, 336 h
Rattus norvegicus [34] = assay: Acute toxicity in Wistar rat assessed as changes in adrenal gland size at 2000 mg/kg, po administered as single dose measured up to 14 days; assay type: organism-based; conditions: in vivo, 336 h
Rattus norvegicus [35] = assay: Acute toxicity in Wistar rat assessed as effect on normal behavior at 60 mg/kg, po administered as repeated dosing for 28 days; assay type: organism-based; conditions: in vivo, 672 h
Rattus norvegicus [36] = assay: Acute toxicity in Wistar rat assessed as cutaneous xanthomatosis at 60 mg/kg, po administered as repeated dosing for 42 days; assay type: organism-based; conditions: in vivo, 1008 h
Rattus norvegicus [37] = assay: Acute toxicity in Wistar rat assessed as hematological changes at 60 mg/kg, po administered as repeated dosing for 28 days; assay type: organism-based; conditions: in vivo, 672 h
Rattus norvegicus [38] = assay: Acute toxicity in Wistar rat assessed as macroscopic lesions in lung at 2000 mg/kg, po administered as single dose measured up to 14 days; assay type: organism-based; conditions: in vivo, 336 h

CCCCNC(=O)Nc1ccc(-c2sc(C)nc2-c2ccc(C)cc2)cc1
inhibition (Rattus norvegicus [1]): 64.9%
IC50 [2]: 2430 nM
pIC50 [2]: 5.614
fold change (FC) (Rattus norvegicus [3]): 20
Activity (Rattus norvegicus [4]): 138 mg/dL
Activity (Rattus norvegicus [5]): Dose-dependent effect
Activity (Rattus norvegicus [6]): inactive
Activity (Rattus norvegicus [7]): inactive
Activity_index (Rattus norvegicus [8]): 7.55
Activity_index (Rattus norvegicus [9]): 1.82
Activity (Rattus norvegicus [10]): 299 g
fold change (FC) (Rattus norvegicus [11]): 3
Activity (Rattus norvegicus [12]): 16.21%
Activity (Rattus norvegicus [13]): inactive
Activity (Rattus norvegicus [14]): Active
Activity (Rattus norvegicus [15]): Active
Activity (Rattus norvegicus [16]): Non-Toxic
Activity (Rattus norvegicus [17]): Non-Toxic
Activity (Rattus norvegicus [18]): Non-Toxic
Activity (Rattus norvegicus [19]): Non-Toxic
Activity (Rattus norvegicus [20]): Non-Toxic
Activity (Rattus norvegicus [21]): Non-Toxic
Activity (Rattus norvegicus [22]): Non-Toxic
Activity (Rattus norvegicus [23]): Non-Toxic
LD50 at 336 h [24]: > 2000 mg/kg
Activity (Rattus norvegicus [25]): Non-Toxic
Activity (Rattus norvegicus [26]): Non-Toxic
Activity (Rattus norvegicus [27]): Non-Toxic
Activity (Rattus norvegicus [28]): Non-Toxic
Activity (Rattus norvegicus [29]): Non-Toxic
Activity (Rattus norvegicus [30]): Non-Toxic
Activity (Rattus norvegicus [31]): Non-Toxic
Activity (Rattus norvegicus [32]): Non-Toxic
Activity (Rattus norvegicus [33]): Non-Toxic
Activity (Rattus norvegicus [34]): Non-Toxic
Activity (Rattus norvegicus [35]): Non-Toxic
Activity (Rattus norvegicus [36]): Non-Toxic
Activity (Rattus norvegicus [37]): Non-Toxic
Activity (Rattus norvegicus [38]): Non-Toxic
